Measured values: PMC9370616, “Three New Acrylic Acid Derivatives from Achillea mellifolium as Potential Inhibitors of Urease from Jack Bean and α-Glucosidase from Saccharomyces cerevisiae” (Molecules, 2022)

Tests used:
[1] = target: α-glucosidase from Saccharomyces cerevisiae; assay: α-Glucosidase inhibition assay (chromogenic method, p-nitrophenyl-α-D-glucopyranoside); type: biochemical; conditions: pH 6.9, 37 °C; read-out: α Glucosidase Inhibition (IC50 ± S.E.M)
Experimental: α-glucosidase from Saccharomyces cerevisiae was purchased from Sigma Aldrich. […] The test samples were prepared (200 µg/mL) in DMSO and 10 μL of each sample was added to 20 μL of α-glucosidase solution (prepared in 120 μL of 0.1 M phosphate buffer, pH 6.9) in a 96-well plate format and incubated for 15 min at 37 °C. After incubation, 20 μL p-nitrophenyl-α-D-glucopyranoside (5 mM) solution was added to this mixture and incubated for a further 15 min. Finally, 80 µL of Na2CO3 solution (0.2 M) was added to this solution to stop the reaction and the absorbance was measured at 410 nm with SpectraMax microplate reader, M2. […] The α-glucosidase inhibition (%) was calculated with the help of the following formula:Inhibition (%) = (Absorbance of Control − Absorbance of Sample)/(Absorbance of Control) × 100
The IC50 values of the active samples were calculated using regression equation by plotting % inhibition at various concentrations.

jack-bean urease = target: T1, jack-bean urease (Canavalia ensiformis, UniProt P07374); assay: biochemical
T1 construct: purchased Sigma Aldrich
T1 sequence (P07374 whole entry, looked up): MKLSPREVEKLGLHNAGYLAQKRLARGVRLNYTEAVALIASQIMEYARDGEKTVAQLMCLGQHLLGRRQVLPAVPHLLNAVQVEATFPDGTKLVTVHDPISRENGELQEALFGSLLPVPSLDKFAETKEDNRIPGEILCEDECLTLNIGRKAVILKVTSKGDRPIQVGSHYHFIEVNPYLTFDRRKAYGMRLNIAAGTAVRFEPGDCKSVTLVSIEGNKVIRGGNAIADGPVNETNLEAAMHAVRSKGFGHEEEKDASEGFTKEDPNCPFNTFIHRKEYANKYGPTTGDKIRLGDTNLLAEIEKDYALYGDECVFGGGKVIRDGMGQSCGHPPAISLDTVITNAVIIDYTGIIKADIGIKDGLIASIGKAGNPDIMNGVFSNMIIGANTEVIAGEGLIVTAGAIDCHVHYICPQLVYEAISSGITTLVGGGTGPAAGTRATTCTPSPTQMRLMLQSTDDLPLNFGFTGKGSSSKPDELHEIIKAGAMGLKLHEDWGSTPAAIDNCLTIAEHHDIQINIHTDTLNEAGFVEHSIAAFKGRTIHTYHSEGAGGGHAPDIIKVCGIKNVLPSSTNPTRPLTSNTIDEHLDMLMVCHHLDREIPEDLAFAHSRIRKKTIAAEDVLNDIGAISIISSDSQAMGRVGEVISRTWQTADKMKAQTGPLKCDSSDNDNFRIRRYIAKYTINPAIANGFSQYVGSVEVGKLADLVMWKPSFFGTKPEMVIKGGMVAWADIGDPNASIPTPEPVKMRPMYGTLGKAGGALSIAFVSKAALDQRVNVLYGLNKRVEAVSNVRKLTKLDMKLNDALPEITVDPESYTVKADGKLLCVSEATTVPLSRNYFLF
Experimental: The assay mixture, containing 50 μL (2 mg/mL) of jack-bean urease (purchased from Sigma Aldrich) and 100 μL of different concentration of test compounds, which were previously dissolved in ethanol 20%, was added to 850 μL of 25 mM urea and pre-incubated for 0.5 h in a water bath at 37 °C. The urease reaction was stopped after 30 min incubation by following procedure.
Urease activity was determined by measuring ammonia production using the indophenol method, as described by Weatherburn. After pre-incubation, 500 μL of phenol reagent (1% w/v phenol and 0.005% w/v sodium nitroprusside) and 500 μL of alkali reagent (1% w/v NaOH and 0.075% active chloride NaOCl) were added to 100 μL of incubation mixture and kept at 37 °C for 30 min. The absorbance was measured at 625 nm. All experiments were performed in triplicate in a final volume of 1 mL, and thiourea was used as a standard urease inhibitor.
Percentage inhibitions were calculated using the formula:(100 − (OD sample/OD control) × 100)
The IC50 values were then calculated using GraphPad Prism 5 software.

Compound | IC50 [1] | IC50 (jack-bean urease)
CCOC(=O)/C=C/[C@H]1C(C)=CC(=O)[C@H](OC)C1(C)C (relative stereo) [Compound 1, ethyl (E)-3-((1S,5R)-5-methoxy-2,6,6-trimethyl-4-oxocyclohex-2-en-1-yl)acrylate] | 331.47 ± 0.04 µM | 16.87 ± 0.02 µM
COC(=O)/C=C/[C@H]1C(C)=CC(=O)[C@H](OC)C1(C)C (relative stereo) [Compound 2, methyl (E)-3-((1S,5R)-5-methoxy-2,6,6-trimethyl-4-oxocyclohex-2-en-1-yl)acrylate] | 294.18 ± 0.07 µM | 13.71 ± 0.07 µM
CO[C@H]1C(=O)C=C(C)[C@H](/C=C/C(C)=O)C1(C)C (relative stereo) [Compound 3, (4S,6R)-6-methoxy-3,5,5-trimethyl-4-((E)-3-oxobut-1-en-1-yl)cyclohex-2-en-1-one] | 310.68 ± 0.05 µM | 10.46 ± 0.03 µM
